Counter-ions that a name gives are not always drawn.
System: platelet aggregation in human platelet rich plasma (PRP)
Assay: Platelet Aggregation Assay (platelet rich plasma, with or without esterase pretreatment)
Type: cell-based
Settings: Platelet, preincubated with 100 IU/mL porcine liver esterase 2 hours at 37° C., 100 μM ADP, read-out: Platelet Aggregation Assay IC50 (with esterase)
Description: Venous blood was obtained from the arm of a healthy human donor who was drug-free and aspirin-free for at least two weeks prior to blood collection. Blood was collected into 10 mL citrated Vacutainer tubes. The blood was centrifuged for 15 minutes at 150×g at room temperature, and platelet-rich plasma (PRP) was removed. The remaining blood was centrifuged for 15 minutes at 1500×g at room temperature, and platelet-poor plasma (PPP) was removed. Samples were assayed on a aggregometer (PAP-4 Platelet Aggregation Profiler), using PPP as the blank (100% transmittance). 200 μL of PRP was added to each micro test tube, and transmittance was set to 0%. 20 μL of various agonists (ADP, collagen, arachidonate, epinephrine, thrombin) were added to each tube, and the aggregation profiles were plotted (% transmittance versus time). The results are expressed as % inhibition of agonist-induced platelet aggregation. For the IC50 evaluation, the test compounds were added at various concentrations prior to the activation of the platelets.
Ester prodrugs were preincubated (10^-3 M F.C.) with 100 IU/mL Porcine liver esterase (Sigma Chemical Co., St. Louis, Mo., #E-3128) for 2 hours at 37° C. Aliquots are then diluted in 0.1M Tris, pH 7.4, to the desired concentrations. Aliquots of 20 μl of the esterase pretreated prodrugs are added to 200 μl of human platelet rich plasma. Samples were placed in platelet profiler (aggregometer) for 8 minutes at 37° C., followed by the addition of 100 μM Adenosine Diphosphate, (Sigma Chemical Co., St. Louis, Mo., #A-6521), to induce platelet aggregation. Platelet aggregation was allowed to proceed for 5 minutes. Percent inhibition is calculated using percent aggregation in the presence of the test compound divided by percent aggregation of control, times 100. This value is subtracted from 100, yielding percent inhibition. Calculation of IC50 is performed on a Texas Instruments TI59 with an IC50 program.
Table A below sets forth the antiplatelet activity of representative compounds of the present invention. The indicated compounds were tested for their ability to inhibit platelet aggregation (using platelet rich plasma (PRP)). The IC50 value (the concentration of antagonist which inhibits platelet aggregation by 50% relative to a control lacking the antagonist) is shown. In Table 5 the IC50 values are expressed as: +++=IC50 of <10 μM; ++=IC50 of 10-50 μM; +=IC50 of 50-100 μM (μM=micromolar).

Compound	IC50
COC(=O)C(CNC(=O)CC1CC(c2ccc(C(N)=NC(=O)OC(C)(C)C)cc2)=NO1)NC(=O)OCc1ccccc1 (centres unmarked) [Example 440]	< 10 µM
COC(=O)C(CNC(=O)CC1CC(c2ccc(C(=N)N)cc2)=NO1)NS(=O)(=O)c1ccc(-c2ccccn2)s1 (centres unmarked) [Example 552]	< 10 µM
COC(=O)C(CNC(=O)CC1CC(c2ccc(C(=N)N)cc2)=NO1)NS(=O)(=O)c1ccccn1 (centres unmarked) [Example 495]	< 10 µM
COC(=O)CC(CCc1ccncc1)NC(=O)CC1CC(c2ccc(C(=N)N)cc2)=NO1 (centres unmarked) [Example 450]	< 10 µM
COC(=O)[C@H](CNC(=O)CC1CC(c2ccc(C(=N)N)cc2)=NO1)NS(=O)(=O)N(C)C (stereo partly drawn) [Example 511, Methyl N^2-(N,N-dimethylsulfamoyl)-N^3-[3-(4-amidinophenyl)isoxazolin-5-(R,S)-ylacetyl]-(S)-2,3-diaminopropionate, trifluoroacetic acid salt]	< 10 µM
COC(=O)C(CNC(=O)CC1CC(c2ccc(C(=N)N)cc2)=NO1)NS(=O)(=O)c1cccnc1 (centres unmarked) [Example 494]	< 10 µM
COC(=O)C[C@H](CCc1ccccc1)NC(=O)CC1CC(c2ccc(C(=N)N)cc2)=NO1 (stereo partly drawn) [Example 120b, Methyl 3(S)-{5(R,S)-N-[3-(4-amidinophenyl)isoxazolin-5-ylacetyl]amino}-3-phenethylpropanoate]	< 10 µM
COC(=O)C(CNC(=O)CC1CC(c2ccc(C(=N)N)cc2)=NO1)NC(=O)OCCCC(F)(F)F (centres unmarked) [Example 537]	< 10 µM
CCOC(=O)CC(NC(=O)CC1CC(c2ccc(C(=N)N)cc2)=NO1)C(=O)OCC (centres unmarked) [Example 439]	< 10 µM
COC(=O)CC(NC(=O)CC1CC(c2ccc(C(=N)N)cc2)=NO1)C(=O)N1CCCc2ccccc21 (centres unmarked) [Example 464]	< 10 µM
CCCCS(=O)(=O)NCC(CC(=O)OC)NC(=O)CC1CC(c2ccc(C(=N)N)cc2)=NO1 (racemic) [Example 362, Methyl 3(R,S)-{5(R,S)-N-[3-(4-amidinophenyl)isoxazolin-5-ylacetyl]amino}-4-(n-butylsulfonamido)butanoate . trifluoroacetic acid salt]	< 10 µM
COC(=O)C(CNC(=O)CC1CC(c2ccc(C(=N)N)cc2)=NO1)NS(=O)(=O)CCCc1ccccc1 (centres unmarked) [Example 493]	< 10 µM
COC(=O)CC(NC(=O)CC1CC(c2ccc(C(=N)N)cc2)=NO1)C(=O)N1CCc2ccccc2C1 (centres unmarked) [Example 465]	< 10 µM
N=C(N)NCCCC1=NOC(C(=O)NCC(NC(=O)OCc2ccccc2)C(=O)O)C1 (centres unmarked) [Example 2401]	< 10 µM
Cc1ccc(S(=O)(=O)NC(CNC(=O)CC2CC(c3ccc(C(=N)N)cc3)=NO2)C(=O)O)cc1 (centres unmarked) [Example 300]	< 10 µM
COC(=O)C(CNC(=O)CC1CC(c2ccc(C(=N)N)cc2)=NO1)NS(=O)(=O)c1ccc(C(C)C)cc1 (centres unmarked) [Example 492]	< 10 µM
COC(=O)C(CNC(=O)CC1CC(c2ccc(C(=N)N)cc2)=NO1)NS(=O)(=O)c1ccc(C#N)cc1 (centres unmarked) [Example 486]	< 10 µM

Compound	IC50
CCCCOC(=O)N[C@@H](CNC(=O)CC1CC(c2ccc(C(=N)N)cn2)=NO1)C(=O)OC (some centres unmarked) [Example 513, Methyl N^2-(n-butyloxycarbonyl)-N^3-[3-(3-amidinopyrid-6-yl)isoxazolin-5-ylacetyl]-S-2,3-diaminopropionate hydrochloric acid salt]	< 10 µM
COC(=O)CC(CNS(=O)(=O)c1ccccc1)NC(=O)CC1CC(c2ccc(C(=N)N)cc2)=NO1 (racemic) [Example 359, Methyl 3(R,S) -{5(R,S)-N-[3-(4-amidinophenyl)isoxazolin-5-ylacetyl]amino}-4-(phenylsulfonamido)butanoate . trifluoroacetic acid salt]	< 10 µM
CCOC(=O)CC(CN(C)C)NC(=O)CC1CC(c2ccc(C(=N)N)cc2)=NO1 (centres unmarked) [Example 166]	< 10 µM
COC(=O)[C@H](CNC(=O)CC1CC(c2ccc(C(=N)N)cc2)=NO1)NS(=O)(=O)C=C(c1ccccc1)c1ccccc1 (stereo partly drawn) [Example 496, Methyl N^2-(2,2-diphenyl-1-ethenesulfonyl)-N^3-[3-(4-amidinophenyl)isoxazolin-5-(R,S)-ylacetyl]-(S)-2,3-diaminopropionate, trifluoroacetic acid salt]	< 10 µM
N=C(N)NCCCC1CC(C(=O)NCC(NC(=O)OCc2ccccc2)C(=O)O)=NO1 (centres unmarked) [Example 1284]	< 10 µM
COC(=O)C(CNC(=O)CC1CC(c2ccc(C(=N)N)cc2)=NO1)NS(=O)(=O)c1sc2ccccc2c1C (centres unmarked) [Example 556]	< 10 µM
N=C(N)NCCCCCC1=NOC(C(=O)NCC(NC(=O)OCc2ccccc2)C(=O)O)C1 (centres unmarked) [Example 2402]	< 10 µM
COC(=O)CC(NC(=O)CC1CC(c2ccc(C(=N)N)cc2)=NO1)C(=O)N1CCSCC1 (centres unmarked) [Example 468]	< 10 µM
N=C(N)NCCCCCC1=NOC(CC(=O)NCC(NC(=O)OCc2ccccc2)C(=O)O)C1 (centres unmarked) [Example 2110]	< 10 µM
COC(=O)C(CNC(=O)CC1CC(c2ccc(C(=N)N)cc2)=NO1)NS(=O)(=O)c1ccccc1C(F)(F)F (centres unmarked) [Example 480]	< 10 µM
Cc1noc(C)c1S(=O)(=O)N[C@@H](CNC(=O)C[C@H]1CC(c2ccc(C(=N)N)cc2)=NO1)C(=O)O [Example 2104]	< 10 µM
COC(=O)C(CNC(=O)CC1CC(c2ccc(C(=N)N)cc2)=NO1)NS(C)(=O)=O (centres unmarked) [Example 323]	< 10 µM
COC(=O)C(CNC(=O)CC1CC(c2ccc(C(=N)N)cc2)=NO1)NC(=O)Nc1ccc(F)cc1 (centres unmarked) [Example 518]	< 10 µM
COC(=O)CC(NC(=O)CC1CC(c2ccc(C(=N)N)cc2)=NO1)C(=O)NC1C2CC3CC(C2)CC1C3 (centres unmarked) [Example 467]	< 10 µM
COC(=O)C(CNC(=O)CC1CC(c2ccc(C(=N)N)cc2)=NO1)NS(=O)(=O)NCc1ccccc1 (centres unmarked) [Example 510]	< 10 µM
COC(=O)[C@H](CN(C)C(=O)CC1CC(c2ccc(C(=N)N)cc2)=NO1)NC(=O)OCc1ccccc1 (stereo partly drawn) [Example 651, Methyl N^2-benzyloxycarbonyl-N^3-methyl-N^3-[3-(4-amidinophenyl)isoxazolin-5-(R,S)-ylacetyl]-(S)-2,3-diaminopropionate, trifluoroacetic acid salt]	< 10 µM

Same assay, conditions: Platelet, without esterase, read-out: Platelet Aggregation Assay IC50 (without esterase)

Compound	IC50
N=C(N)c1ccc(C2=NOC(CC(=O)N3CCCCC3CC(=O)O)C2)cc1 [Example 375, 2-(R,S)-2-Carboxymethyl-1-{5-(R,S)-N-[3-(4-amidinophenyl)isoxazolin-5-ylacetyl]}piperidine]	< 10 µM
O=C(O)CCC1CC(c2ccc(OCCC3CCNCC3)cc2)=NO1 (racemic) [Example 8, 3-[4-(2-Piperidin-4-yl)ethoxyphenyl]-(5R,S) -isoxazolin-5-ylpropionic Acid, Trifluoroacetic Acid Salt]	50 to 100 µM
O=C(N[C@H](C(=O)O)C1CC(c2ccc(OCCC3CCNCC3)cc2)=NO1)OCc1ccccc1 (single isomer, unassigned) [4 (isomer B), Trifluoroacetic Acid Salt]	10 to 50 µM

Same assay, conditions: preincubated with 100 IU/mL porcine liver esterase 2 hours at 37° C., 100 μM ADP, read-out: Platelet Aggregation Assay IC50 (with esterase)

Compound	IC50
CCCS(=O)(=O)NC(CNC(=O)CC1CC(c2ccc(C(=N)N)cc2)=NO1)C(=O)OC (centres unmarked) [Example 539]	< 10 µM

Same assay, conditions: without esterase, read-out: Platelet Aggregation Assay IC50 (without esterase)

Compound	IC50
CCCCS(=O)(=O)NC(CC1CC(c2ccc(OCC3CCNCC3)cc2)=NO1)C(=O)O (single isomer, unassigned) [9 (isomer B), 3-(3-[4-{(Piperidin-4-yl)methoxy}phenyl]isoxazolin-5-yl{[butanesulfonyl]amino}]propionic Acid, Trifluoroacetic Acid Salt (Less Polar Diastereomer)]	< 10 µM

From patent US5849736A, “Isoxazoline and isoxazole fibrinogen receptor antagonists” (The DuPont Merck Pharmaceutical Company, priority 1995, dated 1998)
